Test results as given in the supplement of paper PMC10307832.

Experiments:
Experiment in all cases: relative viability (nuclei count vs DMSO), 5 days (fraction); higher = more cells survive
[1] = compound: C1=CC=C2C(=C1)N=C(S2)C(C#N)C3=NC(=NC=C3)NCCC4=CN=CC=C4 + NC(=O)Nc1cc(-c2cccc(F)c2)sc1C(=O)N[C@H]1CCCNC1 [AZD7762] (partner 0.2 µM)
How it was run: (§1)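 Lung cancer cell lines, seeded in 1536-well plates, were treated the following day by pin tool with a single drug or with five library-drug doses (not always all listed) in √10 steps on top of a fixed anchor-drug dose. Cells were fixed and nuclei stained in one step after 5 days, and nuclei were counted. Relative viability is the nuclei count for treated wells divided by that for vehicle wells, reported as medians of duplicate plates.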

[2] = compound: C1=CC=C2C(=C1)N=C(S2)C(C#N)C3=NC(=NC=C3)NCCC4=CN=CC=C4 + COc1cccc2cc(-c3nc([C@H]4CC[C@H](C(=O)O)CC4)n4ncnc(N)c34)[nH]c12 [OSI-027] (partner 0.5 µM)
How it was run: as §1

Vandetanib + Foretinib = compound: COc1cc2/c(=N/c3ccc(Br)cc3F)nc[nH]c2cc1OCC1CCN(C)CC1 [Vandetanib] + COc1cc2c(Oc3ccc(NC(=O)C4(C(=O)Nc5ccc(F)cc5)CC4)cc3F)ccnc2cc1OCCCN1CCOCC1 [Foretinib] (partner 0.25 µM)
How it was run: as §1

NVP-TAE684 + Dasatinib = compound: COc1cc(N2CCC(N3CCN(C)CC3)CC2)ccc1Nc1ncc(Cl)c(Nc2ccccc2S(=O)(=O)C(C)C)n1 [NVP-TAE684] + Cc1nc(Nc2ncc(C(=O)Nc3c(C)cccc3Cl)s2)cc(N2CCN(CCO)CC2)n1 [Dasatinib] (partner 0.075 µM)
How it was run: as §1

NCI-H1666
relative viability ([1]; first compound 0.005 µM): 0.956
relative viability ([1]; first compound 0.01581 µM): 0.764
relative viability ([1]; first compound 0.05 µM): 0.817
relative viability ([1]; first compound 0.1581 µM): 0.805
relative viability ([1]; first compound 0.5 µM): 0.803
relative viability ([2]; first compound 0.005 µM): 0.776
relative viability ([2]; first compound 0.01581 µM): 0.839
relative viability ([2]; first compound 0.05 µM): 0.804
relative viability ([2]; first compound 0.1581 µM): 0.849
relative viability ([2]; first compound 0.5 µM): 0.812
relative viability (Vandetanib + Foretinib; first compound 0.02 µM): 0.908
relative viability (Vandetanib + Foretinib; first compound 0.06325 µM): 0.947
relative viability (Vandetanib + Foretinib; first compound 0.2 µM): 0.439
relative viability (Vandetanib + Foretinib; first compound 0.6325 µM): 0.93
relative viability (Vandetanib + Foretinib; first compound 2 µM): 0.786
relative viability (NVP-TAE684 + Dasatinib; first compound 0.2 µM): 0.813
relative viability (NVP-TAE684 + Dasatinib; first compound 0.6325 µM): 0.708
relative viability (NVP-TAE684 + Dasatinib; first compound 2 µM): 0.46

A-427
relative viability ([1]; first compound 0.005 µM): 0.816
relative viability ([1]; first compound 0.01581 µM): 0.727
relative viability ([1]; first compound 0.05 µM): 0.682
relative viability ([1]; first compound 0.1581 µM): 0.764
relative viability ([1]; first compound 0.5 µM): 0.645
relative viability ([2]; first compound 0.005 µM): 0.481
relative viability ([2]; first compound 0.01581 µM): 0.467
relative viability ([2]; first compound 0.05 µM): 0.442
relative viability ([2]; first compound 0.1581 µM): 0.475
relative viability ([2]; first compound 0.5 µM): 0.39
relative viability (Vandetanib + Foretinib; first compound 0.02 µM): 1.03
relative viability (Vandetanib + Foretinib; first compound 0.06325 µM): 1.05
relative viability (Vandetanib + Foretinib; first compound 0.2 µM): 1.1
relative viability (Vandetanib + Foretinib; first compound 0.6325 µM): 0.977
relative viability (Vandetanib + Foretinib; first compound 2 µM): 1.05
relative viability (NVP-TAE684 + Dasatinib; first compound 0.2 µM): 0.789
relative viability (NVP-TAE684 + Dasatinib; first compound 0.6325 µM): 0.703
relative viability (NVP-TAE684 + Dasatinib; first compound 2 µM): 0.554

NCI-H2170
relative viability ([1]; first compound 0.005 µM): 0.861
relative viability ([1]; first compound 0.01581 µM): 0.995
relative viability ([1]; first compound 0.05 µM): 0.861
relative viability ([1]; first compound 0.1581 µM): 0.968
relative viability ([1]; first compound 0.5 µM): 0.744
relative viability ([2]; first compound 0.005 µM): 0.687
relative viability ([2]; first compound 0.01581 µM): 0.653
relative viability ([2]; first compound 0.05 µM): 0.718
relative viability ([2]; first compound 0.1581 µM): 0.698
relative viability ([2]; first compound 0.5 µM): 0.706
relative viability (Vandetanib + Foretinib; first compound 0.02 µM): 1.04
relative viability (Vandetanib + Foretinib; first compound 0.06325 µM): 0.57
relative viability (Vandetanib + Foretinib; first compound 0.2 µM): 1.06
relative viability (Vandetanib + Foretinib; first compound 0.6325 µM): 0.978
relative viability (Vandetanib + Foretinib; first compound 2 µM): 1.03
relative viability (NVP-TAE684 + Dasatinib; first compound 0.2 µM): 0.588
relative viability (NVP-TAE684 + Dasatinib; first compound 0.6325 µM): 0.477
relative viability (NVP-TAE684 + Dasatinib; first compound 2 µM): 0.368

NCI-H1395
relative viability ([1]; first compound 0.005 µM): 0.392
relative viability ([1]; first compound 0.05 µM): 0.379
relative viability ([1]; first compound 0.1581 µM): 0.428
relative viability ([1]; first compound 0.5 µM): 0.389
relative viability ([2]; first compound 0.005 µM): 0.606
relative viability ([2]; first compound 0.01581 µM): 0.515
relative viability ([2]; first compound 0.05 µM): 0.569
relative viability ([2]; first compound 0.1581 µM): 0.843
relative viability ([2]; first compound 0.5 µM): 0.658
relative viability (Vandetanib + Foretinib; first compound 0.02 µM): 0.969
relative viability (Vandetanib + Foretinib; first compound 0.06325 µM): 1.02
relative viability (Vandetanib + Foretinib; first compound 0.2 µM): 1.02
relative viability (Vandetanib + Foretinib; first compound 0.6325 µM): 0.972
relative viability (Vandetanib + Foretinib; first compound 2 µM): 0.998
relative viability (NVP-TAE684 + Dasatinib; first compound 0.2 µM): 0.408
relative viability (NVP-TAE684 + Dasatinib; first compound 0.6325 µM): 0.387
relative viability (NVP-TAE684 + Dasatinib; first compound 2 µM): 0.317

NCI-H650
relative viability ([1]; first compound 0.005 µM): 1.12
relative viability ([1]; first compound 0.01581 µM): 1.07
relative viability ([1]; first compound 0.05 µM): 0.891
relative viability ([1]; first compound 0.1581 µM): 1.23
relative viability ([1]; first compound 0.5 µM): 1.09
relative viability ([2]; first compound 0.005 µM): 0.521
relative viability ([2]; first compound 0.05 µM): 0.544
relative viability ([2]; first compound 0.1581 µM): 0.475
relative viability ([2]; first compound 0.5 µM): 0.486
relative viability (Vandetanib + Foretinib; first compound 0.02 µM): 1.04
relative viability (Vandetanib + Foretinib; first compound 0.06325 µM): 1.03
relative viability (Vandetanib + Foretinib; first compound 0.6325 µM): 1.02
relative viability (Vandetanib + Foretinib; first compound 2 µM): 0.98
relative viability (NVP-TAE684 + Dasatinib; first compound 0.2 µM): 0.513
relative viability (NVP-TAE684 + Dasatinib; first compound 0.6325 µM): 0.376
relative viability (NVP-TAE684 + Dasatinib; first compound 2 µM): 0.262

NCI-H1437
relative viability ([1]; first compound 0.005 µM): 1.12
relative viability ([1]; first compound 0.01581 µM): 1.12
relative viability ([1]; first compound 0.05 µM): 1.11
relative viability ([1]; first compound 0.1581 µM): 1.13
relative viability ([1]; first compound 0.5 µM): 0.968
relative viability ([2]; first compound 0.005 µM): 0.855
relative viability ([2]; first compound 0.01581 µM): 0.817
relative viability ([2]; first compound 0.05 µM): 0.93
relative viability ([2]; first compound 0.1581 µM): 0.917
relative viability ([2]; first compound 0.5 µM): 0.723
relative viability (Vandetanib + Foretinib; first compound 0.02 µM): 1.26
relative viability (Vandetanib + Foretinib; first compound 0.06325 µM): 1.25
relative viability (Vandetanib + Foretinib; first compound 0.2 µM): 0.271
relative viability (Vandetanib + Foretinib; first compound 0.6325 µM): 1.35
relative viability (Vandetanib + Foretinib; first compound 2 µM): 1.19
relative viability (NVP-TAE684 + Dasatinib; first compound 0.2 µM): 0.363
relative viability (NVP-TAE684 + Dasatinib; first compound 0.6325 µM): 0.272
relative viability (NVP-TAE684 + Dasatinib; first compound 2 µM): 0.128

HCC-366
relative viability ([1]; first compound 0.005 µM): 0.199
relative viability ([1]; first compound 0.01581 µM): 0.254
relative viability ([1]; first compound 0.05 µM): 0.288
relative viability ([1]; first compound 0.1581 µM): 0.279
relative viability ([1]; first compound 0.5 µM): 0.129
relative viability ([2]; first compound 0.005 µM): 0.482
relative viability ([2]; first compound 0.01581 µM): 0.961
relative viability ([2]; first compound 0.05 µM): 0.856
relative viability ([2]; first compound 0.1581 µM): 1.05
relative viability ([2]; first compound 0.5 µM): 0.672
relative viability (Vandetanib + Foretinib; first compound 0.02 µM): 1.02
relative viability (Vandetanib + Foretinib; first compound 0.06325 µM): 0.941
relative viability (Vandetanib + Foretinib; first compound 0.2 µM): 0.501
relative viability (Vandetanib + Foretinib; first compound 0.6325 µM): 0.893
relative viability (Vandetanib + Foretinib; first compound 2 µM): 0.907
relative viability (NVP-TAE684 + Dasatinib; first compound 0.2 µM): 0.827
relative viability (NVP-TAE684 + Dasatinib; first compound 0.6325 µM): 0.508
relative viability (NVP-TAE684 + Dasatinib; first compound 2 µM): 0.233

NCI-H2342
relative viability ([1]; first compound 0.005 µM): 0.546
relative viability ([1]; first compound 0.01581 µM): 0.484
relative viability ([1]; first compound 0.05 µM): 0.49
relative viability ([1]; first compound 0.1581 µM): 0.583
relative viability ([1]; first compound 0.5 µM): 0.467
relative viability ([2]; first compound 0.005 µM): 0.532
relative viability ([2]; first compound 0.01581 µM): 0.64
relative viability ([2]; first compound 0.05 µM): 0.569
relative viability ([2]; first compound 0.1581 µM): 0.671
relative viability ([2]; first compound 0.5 µM): 0.578
relative viability (Vandetanib + Foretinib; first compound 0.02 µM): 1.08
relative viability (Vandetanib + Foretinib; first compound 0.06325 µM): 1.01
relative viability (Vandetanib + Foretinib; first compound 0.2 µM): 1.14
relative viability (Vandetanib + Foretinib; first compound 0.6325 µM): 1.17
relative viability (Vandetanib + Foretinib; first compound 2 µM): 0.923
relative viability (NVP-TAE684 + Dasatinib; first compound 0.2 µM): 0.297
relative viability (NVP-TAE684 + Dasatinib; first compound 0.6325 µM): 0.277
relative viability (NVP-TAE684 + Dasatinib; first compound 2 µM): 0.292

SW 900
relative viability ([1]; first compound 0.005 µM): 0.693
relative viability ([1]; first compound 0.01581 µM): 0.634
relative viability ([1]; first compound 0.05 µM): 0.548
relative viability ([1]; first compound 0.1581 µM): 0.622
relative viability ([1]; first compound 0.5 µM): 0.533
relative viability ([2]; first compound 0.005 µM): 0.48
relative viability ([2]; first compound 0.01581 µM): 0.448
relative viability ([2]; first compound 0.05 µM): 0.506
relative viability ([2]; first compound 0.1581 µM): 0.763
relative viability ([2]; first compound 0.5 µM): 0.424
relative viability (Vandetanib + Foretinib; first compound 0.02 µM): 0.927
relative viability (Vandetanib + Foretinib; first compound 0.06325 µM): 0.779
relative viability (Vandetanib + Foretinib; first compound 0.2 µM): 0.143
relative viability (Vandetanib + Foretinib; first compound 0.6325 µM): 1
relative viability (Vandetanib + Foretinib; first compound 2 µM): 0.917
relative viability (NVP-TAE684 + Dasatinib; first compound 0.2 µM): 0.739
relative viability (NVP-TAE684 + Dasatinib; first compound 0.6325 µM): 0.414
relative viability (NVP-TAE684 + Dasatinib; first compound 2 µM): 0.397
